Laboratory results reported in patent US9487490B2, “3-cyclohexenyl and cyclohexyl substituted indole and indazole compounds as RORgammaT inhibitors and uses thereof” (Merck Sharp & Dohme Corp., priority 2012, dated 2016).

Biological target: human RORgammaT-Ligand Binding Domain (LBD) (Homo sapiens (Human), UniProt P51449)
Assay: RORγ-Ligand Binding Domain TR-FRET assay (co-activator peptide SRC1_2 recruitment)
Type: biochemical
Details: Fret IC50 (nM), HIS-tagged RORγ-LBD 3 nM, biotinylated SRC1 LXXLL peptide 100 nM, incubated overnight at 4° C., 665 nm/615 nm signal quotient
Source text: Activation of RORgammaT activity can be measured using, e.g., biochemical TR-FRET assay. In such an assay, interaction of cofactor-derived peptides with human RORgammaT-Ligand Binding Domain (LBD) can be measured.
To identify novel antagonists of RORgammaT, an assay was developed which employs the interaction of RORgammaT with its co-activator peptide SRC1_2. […] The RORγ-Ligand Binding Domain TR-FRET Assay was run according to the following protocol.
HIS-tagged RORγ-LBD protein was expressed in SF9 cells using a baculovirus expression system. The RORγ-LBD protein was purified by glutathione sepharose chromatography. Separately, SF9 cells not expressing any recombinant protein were lysed and the lysate was added to the purified RORγ-LBD at 0.25 μl lysate (from 10,000 SF9 cells)/nM purified protein. The mixture was then diluted in assay buffer (50 mM Tris pH 7.0, 50 mM KCl, 1 mM EDTA, 0.1 mM DTT) to obtain RORγ-LBD final concentration of 3 nM in 384-well assay plate.
Compounds to be tested were injected to the assay plate using Acoustic Droplet Ejection technology by Echo 550 liquid handler (Labcyte, Calif.).

Chain of human RORgammaT-Ligand Binding Domain (LBD) (P51449 269-508): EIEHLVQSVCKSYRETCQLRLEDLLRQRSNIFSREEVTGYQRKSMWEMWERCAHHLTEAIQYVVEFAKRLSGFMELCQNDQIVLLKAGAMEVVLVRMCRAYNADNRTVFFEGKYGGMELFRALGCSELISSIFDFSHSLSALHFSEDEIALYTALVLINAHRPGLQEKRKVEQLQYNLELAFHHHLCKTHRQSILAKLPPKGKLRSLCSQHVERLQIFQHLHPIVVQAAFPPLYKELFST

Row | Compound | IC50 [nM]
1 | CC1(C)C=C(c2nn(C(=O)c3c(Cl)cccc3C(F)(F)F)c3cccc(F)c23)CCC1C(=O)O (racemic) [Example 10A, (R and S)-4-(1-(2-chloro-6-(trifluoromethyl)benzoyl)-4-fluoro-1H-indazol-3-yl)-2,2-dimethylcyclohex-3-enecarboxylic acid] | 343
2 | CC1(C)CC(c2nn(C(=O)c3c(Cl)cccc3C(F)(F)F)c3cccc(F)c23)=CCC1C(=O)O (racemic) [Example 10B, (R and S) 4-(1-(2-chloro-6-(trifluoromethyl)benzoyl)-4-fluoro-1H-indazol-3-yl)-6,6-dimethylcyclohex-3-enecarboxylic acid] | 96

Same assay, conditions: HIS-tagged RORγ-LBD 3 nM, biotinylated SRC1 LXXLL peptide 100 nM, incubated overnight at 4° C., 665 nm/615 nm signal quotient; read-out: Fret IC50

Row | Compound | IC50 [nM]
3 | CN(C)C(=O)c1ccc2c(C3=CCC(C(=O)O)CC3)nn(C(=O)c3c(Cl)cccc3C(F)(F)F)c2c1 (stereo not drawn) [Example 1A, 4-(1-(2-chloro-6-(trifluoromethyl)benzoyl)-6-(dimethylcarbamoyl)-1H-indazol-3-yl)cyclohex-3-enecarboxylic acid] | 18
4 | O=C(NCCO)c1ccc2c(C3=CCC(C(=O)O)CC3)nn(C(=O)c3c(Cl)cccc3C(F)(F)F)c2c1 (stereo not drawn) [Example 1D, 4-(1-(2-chloro-6-(trifluoromethyl)benzoyl)-6-(2-hydroxyethylcarbamoyl)-1H-indazol-3-yl)cyclohex-3-enecarboxylic acid] | 774
5 | CC1(C(=O)O)CC=C(c2nn(C(=O)c3c(Cl)cccc3C(F)(F)F)c3cccnc23)CC1 (stereo not drawn) [Example 1F, 4-(1-(2-chloro-6-(trifluoromethyl)benzoyl)-1H-pyrazolo[4,3-b]pyridin-3-yl)-1-methylcyclohex-3-enecarboxylic acid] | 170
6 | CC1C=C(c2nn(C(=O)c3c(Cl)cccc3C(F)(F)F)c3cccnc23)CCC1C(=O)O (stereo not drawn) [Example 1G, 4-(1-(2-chloro-6-(trifluoromethyl)benzoyl)-1H-pyrazolo[4,3-b]pyridin-3-yl)-2-methylcyclohex-3-enecarboxylic acid] | 182
7 | O=C(O)C1CC=C(c2nn(C(=O)c3c(Cl)cccc3C(F)(F)F)c3ccccc23)CC1 (stereo not drawn) [Example 1H, 4-(1-(2-chloro-6-(trifluoromethyl)benzoyl)-1H-indazol-3-yl)cyclohex-3-enecarboxylic acid] | 20
8 | CC1(C(=O)O)CC=C(c2nn(C(=O)c3c(Cl)cccc3C(F)(F)F)c3cccc(Cl)c23)CC1 (stereo not drawn) [Example 1I, 4-(4-chloro-1-(2-chloro-6-(trifluoromethyl)benzoyl)-1H-indazol-3-yl)-1-methylcyclohex-3-enecarboxylic acid] | 14
9 | CC1(C(=O)O)CC=C(c2nn(C(=O)c3c(Cl)cccc3C3CC3)c3cccc(F)c23)CC1 (stereo not drawn) [Example 1J, 4-(1-(2-chloro-6-cyclopropylbenzoyl)-4-fluoro-1H-indazol-3-yl)-1-methylcyclohex-3-enecarboxylic acid] | 7
10 | Cc1cccc(Cl)c1C(=O)n1nc(C2=CCC(C(=O)O)CC2)c2c(F)cccc21 (stereo not drawn) [Example 1K, 4-(1-(2-chloro-6-methylbenzoyl)-4-fluoro-1H-indazol-3-yl)cyclo-hex-3-enecarboxylic acid] | 31
11 | Cc1cccc(Cl)c1C(=O)n1nc(C2=CCC(C(=O)O)CC2)c2ncccc21 (stereo not drawn) [Example 1L, 4-(1-(2-chloro-6-methylbenzoyl)-1H-pyrazolo[4,3-b]pyridine-3-yl)cyclohex-3-enecarboxylic acid] | 123

Continued, values first:

Row | IC50 [nM] | Compound
12 | 54 | CC1CC(C(=O)O)CC=C1c1nn(C(=O)c2c(Cl)cccc2C(F)(F)F)c2cccc(F)c12 (racemic) [Example 12A, 4-(1-(2-chloro-6-(trifluoromethyl)benzoyl)-4-fluoro-1H-indazol-3-yl)-5-methylcyclohex-3-enecarboxylic acid]
13 | 2 | COC1CN(C(=O)c2ccc3c(C4=CCC(C(=O)O)CC4)nn(C(=O)c4c(Cl)cccc4C4CC4)c3c2)C1 (single isomer, unassigned) [Example 2A, (R or S)-4-(1-(2-chloro-6-cyclopropylbenzoyl)-6-(3-methoxyazetidine-1-carbonyl)-1H-indazol-3-yl)cyclohex-3-enecarboxylic acid]
14 | 2 | COC1CN(C(=O)c2ccc3c(C4=CCC(C(=O)O)CC4)nn(C(=O)c4c(Cl)cccc4C4CC4)c3c2)C1 (single isomer, unassigned) [Example 2B, (S or R)-4-(1-(2-chloro-6-cyclopropylbenzoyl)-6-(3-methoxyazetidine-1-carbonyl)-1H-indazol-3-yl)cyclohex-3-enecarboxylic acid]
15 | 4 | COC1CN(C(=O)c2ccc3c(C4=CC[C@](C)(C(=O)O)CC4)nn(C(=O)c4c(Cl)cccc4C4CC4)c3c2)C1 (single isomer, unassigned) [Example 2C, (R or S)-4-(1-(2-chloro-6-cyclopropylbenzoyl)-6-(3-methoxyazetidine-1-carbonyl)-1H-indazol-3-yl)-1-methylcyclohex-3-enecarboxylic acid]
16 | 5 | COC1CN(C(=O)c2ccc3c(C4=CC[C@@](C)(C(=O)O)CC4)nn(C(=O)c4c(Cl)cccc4C4CC4)c3c2)C1 (single isomer, unassigned) [Example 2D, (S or R)-4-(1-(2-chloro-6-cyclopropylbenzoyl)-6-(3-methoxyazetidine-1-carbonyl)-1H-indazol-3-yl)-1-methylcyclohex-3-enecarboxylic acid]
17 | 5 | O=C(O)C1CC=C(c2nn(C(=O)c3c(Cl)cccc3C(F)(F)F)c3cc(C(=O)N4CC(F)(F)C4)ccc23)CC1 (stereo not drawn) [Example 4A, 4-(1-(2-chloro-6-(trifluoromethyl)benzoyl)-6-(3,3-difluoroazetidine-1-carbonyl)-1H-indazol-3-yl)cyclohex-3-enecarboxylic acid]
18 | 143 | O=C(NC1CC1)c1ccc2c(C3=CCC(C(=O)O)CC3)nn(C(=O)c3c(Cl)cccc3C(F)(F)F)c2c1 (stereo not drawn) [Example 4B, 4-(1-(2-chloro-6-(trifluoromethyl)benzoyl)-6-(cyclopropylcarbamoyl)-1H-indazol-3-yl)cyclohex-3-enecarboxylic acid]
19 | 9 | CN(C(=O)c1ccc2c(C3=CCC(C(=O)O)CC3)nn(C(=O)c3c(Cl)cccc3C(F)(F)F)c2c1)C1CC1 (stereo not drawn) [Example 4C, 4-(1-(2-chloro-6-(trifluoromethyl)benzoyl)-6-(cyclopropyl(methyl)carbamoyl)-1H-indazol-3-yl)cyclohex-3-enecarboxylic acid]
20 | 177 | O=C(O)C1CC=C(c2nn(C(=O)c3c(Cl)cccc3C(F)(F)F)c3cc(C(=O)N4CCC4)ccc23)CC1 (stereo not drawn) [Example 4D, 4-(6-(azetidine-1-carbonyl)-1-(2-chloro-6-(trifluoromethyl)benzoyl)-1H-indazol-3-yl)cyclohex-3-enecarboxylic acid]
21 | 2 | COC1CN(C(=O)c2ccc3c(C4=CCC(C(=O)O)CC4)nn(C(=O)c4c(Cl)cccc4C(F)(F)F)c3c2)C1 (stereo not drawn) [Example 4E, 4-(1-(2-chloro-6-(trifluoromethyl)benzoyl)-6-(3-methoxyazetidine-1-carbonyl)-1H-indazol-3-yl)cyclohex-3-enecarboxylic acid]
22 | 30 | O=C(O)C1CC=C(c2nn(C(=O)c3c(Cl)cccc3C(F)(F)F)c3cc(C(=O)N4CCCC4)ccc23)CC1 (stereo not drawn) [Example 4F, 4-(1-(2-chloro-6-(trifluoromethyl)benzoyl)-6-(pyrrolidine-1-carbonyl)-1H-indazol-3-yl)cyclohex-3-enecarboxylic acid]
23 | 6 | C[C@H]1CCCN1C(=O)c1ccc2c(C3=CCC(C(=O)O)CC3)nn(C(=O)c3c(Cl)cccc3C(F)(F)F)c2c1 (stereo partly drawn) [Example 4G, 4-(1-(2-chloro-6-(trifluoromethyl)benzoyl)-6-((S)-2-methylpyrrolidine-1-carbonyl)-1H-indazol-3-yl)cyclohex-3-enecarboxylic acid]
24 | 115 | C[C@@H]1CCCN1C(=O)c1ccc2c(C3=CCC(C(=O)O)CC3)nn(C(=O)c3c(Cl)cccc3C(F)(F)F)c2c1 (stereo partly drawn) [Example 4H, 4-(1-(2-chloro-6-(trifluoromethyl)benzoyl)-6-((R)-2-methylpyrrolidine-1-carbonyl)-1H-indazol-3-yl)cyclohex-3-enecarboxylic acid]
25 | 24 | CC1CN(C(=O)c2ccc3c(C4=CCC(C(=O)O)CC4)nn(C(=O)c4c(Cl)cccc4C(F)(F)F)c3c2)CCO1 (stereo not drawn) [Example 4J, 4-(1-(2-chloro-6-(trifluoromethyl)benzoyl)-6-(2-methylmorpholine-4-carbonyl)-1H-indazol-3-yl)cyclohex-3-enecarboxylic acid]
26 | 94 | CN(C(=O)c1ccc2c(C3=CCC(C(=O)O)CC3)nn(C(=O)c3c(Cl)cccc3C(F)(F)F)c2c1)C1CCCCC1 (stereo not drawn) [Example 4K, 4-(1-(2-chloro-6-(trifluoromethyl)benzoyl)-6-(cyclohexyl(methyl)carbamoyl)-1H-indazol-3-yl)cyclohex-3-enecarboxylic acid]
27 | 36 | O=C(O)C1CC=C(c2nn(C(=O)c3c(Cl)cccc3C(F)(F)F)c3cc(C(=O)N4CCOCC4)ccc23)CC1 (stereo not drawn) [Example 4L, 4-(1-(2-chloro-6-(trifluoromethyl)benzoyl)-6-(morpholine-4-carbonyl)-1H-indazol-3-yl)cyclohex-3-enecarboxylic acid]
